Consider eight compounds from patent US20250108066A1, “TRINUCLEOTIDE CAP ANALOGS AND METHODS OF USE THEREOF” (TriLink BioTechnologies, LLC, priority 2022, published 2025).

Each structure is given as a SMILES string.

The test relates to CD-1 mice. The experiment in a line: In vivo luciferase expression in mice injected with LNP:mRNA (Fluc mRNA capped with cap analog), whole-body bioluminescence imaging. Conditions: female CD-1 mice, LNP:mRNA 1 mg/kg single tail-vein bolus; for in vivo luciferase expression as compared to m7GpppA2′OMepG (Control): integrated flux from 3-48 hours, FIG. 2; for in vivo luciferase expression (translation) as compared to the same compound lacking the 3′OMe group on the m7G: pairwise comparison 3′OMe vs 3′OH on m7G, FIG. 4 / FIG. 2. As to the method: Female CD-1 mice of 8-9 weeks old were randomized into groups of five animals based on body weight at the beginning of the study (Charles River Laboratories, Discovery Research Services North Carolina). Lipid nanoparticle formulations including mRNA (capped using a cap analog recited in Table 1, N1-methylpseudouridine-5′-Triphosphate (N1-me-PsU) modified firefly luciferase (Fluc) mRNA) (LNP:mRNA) test articles were diluted in PBS to achieve 1 mg/kg delivery in a single bolus by tail-vein injection. The body weight of each mouse was measured once a day for the duration of the study and two blood draws were taken for serum analysis by Mouse Cytokine/Chemokine 26-Plex ProcartaPlex Panel 1 by Luminex platform (Thermo Fisher Scientific; Waltham, MA). Luciferase activity was measured by whole-body bioluminescence imaging on IVIS Spectrum CT system by Perkin Elmer (Greenville, SC) at six time points post mRNA injection (3 hours, 6 hours, 9 hours, 12 hours, 24 hours, and 48 hours hours post-injection). D-luciferin was delivered by intraperitoneal injection 10 minutes prior to each imaging session (150 mg/kg total). The measured luciferase expression results are shown in FIG. 2, showing the integrated flux from 3-48 hours. […] Luminescence intensity scale is on the left.

In the case of `C[n+]1cn([C@@H]2O[C@H](COP(=O)(O)OP(=O)([O-])OP(=O)(O)OC[C@]34COC(C3OP(=O)(O)OC[C@H]3O[C@@H](n5cnc6c(=O)[nH]c(N)nc65)C(O)C3O)[C@H](n3cnc5c(N)ncnc53)O4)C(O)C2O)c2nc(N)[nH]c(=O)c21` (stereo in doubt) [Compound 1, ^m7GpppA2′,4′-LNApG], the “in vivo luciferase expression as compared to m7GpppA2′OMepG (Control)” value is “increased in vivo luciferase expression”.

As for `COC1C(O)[C@H](n2c[n+](C)c3c(=O)[nH]c(N)nc32)O[C@@H]1COP(=O)(O)OP(=O)([O-])OP(=O)(O)OC[C@]12COC(C1OP(=O)(O)OC[C@H]1O[C@@H](n3cnc4c(=O)[nH]c(N)nc43)C(O)C1O)[C@H](n1cnc3c(N)ncnc31)O2` (stereo in doubt) [Compound 2, ^m7G3′OMepppA2′,4′-LNApG], the “in vivo luciferase expression as compared to m7GpppA2′OMepG (Control)” value is given as “increased in vivo luciferase expression” and the “in vivo luciferase expression (translation) as compared to the same compound lacking the 3′OMe group on the m7G” value is given as “increased luciferase expression in vivo”.

Consider `COC1C(OP(=O)(O)OC[C@H]2O[C@@H](n3cnc4c(=O)[nH]c(N)nc43)C(O)C2O)[C@@H](COP(=O)(O)OP(=O)([O-])OP(=O)(O)OC[C@H]2O[C@@H](n3c[n+](C)c4c(=O)[nH]c(N)nc43)C(O)C2OC)O[C@H]1n1cnc2c(N)nc(N)nc21` (stereo in doubt) [Compound 8, ^m7G3′OMeppp(diaminopurine)2′OMepG], for which the “in vivo luciferase expression as compared to m7GpppA2′OMepG (Control)” value was “increased in vivo luciferase expression” and the “in vivo luciferase expression (translation) as compared to the same compound lacking the 3′OMe group on the m7G” value is “increased luciferase expression in vivo”.

Regarding `COC1C(OP(=O)(O)OC[C@H]2O[C@@H](n3cnc4c(=O)[nH]c(N)nc43)C(O)C2O)[C@@H](COP(=O)(O)OP(=O)([O-])OP(=O)(O)OC[C@H]2O[C@@H](n3c[n+](C)c4c(=O)[nH]c(N)nc43)C(OC)C2OC)O[C@H]1n1cnc2c(N)ncnc21` (stereo in doubt) [Compound 25, ^m7G2′OMe3′OMepppA2′OMepG], the “in vivo luciferase expression (translation) as compared to the same compound lacking the 3′OMe group on the m7G” value was “increased luciferase expression in vivo”.

As to `COC1[C@@H](OP(=O)(O)OC[C@H]2O[C@@H](n3cnc4c(=O)[nH]c(N)nc43)C(O)[C@H]2O)[C@@H](/C=C/P(=O)(O)OP(=O)([O-])OP(=O)(O)OC[C@H]2O[C@@H](n3c[n+](C)c4c(=O)[nH]c(N)nc43)C(O)[C@H]2OC)O[C@H]1n1cnc2c(N)ncnc21` (stereo partly drawn) [Compound 5, ^m7G3′-OMepppA2′OMe-5′vinylpG], the “in vivo luciferase expression (translation) as compared to the same compound lacking the 3′OMe group on the m7G” value is “increased luciferase expression in vivo”.

Take `COC1C(OP(=O)(O)OC[C@H]2O[C@@H](n3cnc4c(=O)[nH]c(N)nc43)C(O)C2O)[C@@H](COP(=O)(O)OP(=O)([O-])OP(=O)(O)OC[C@H]2O[C@@H](n3c[n+](C)c4c(=O)[nH]c(N)nc43)C(O)C2OC)O[C@H]1n1cnc2c(N)ncnc21` (stereo partly drawn) [Compound 29, ^m7G3′OmepppA2′OMepG]: the “in vivo luciferase expression as compared to m7GpppA2′OMepG (Control)” value is on record as “increased in vivo luciferase expression” and the “in vivo luciferase expression (translation) as compared to the same compound lacking the 3′OMe group on the m7G” value was “increased luciferase expression in vivo”.

Turning to `CNc1ncnc2c1ncn2[C@@H]1O[C@H](COP(=O)(O)OP(=O)([O-])OP(=O)(O)OC[C@H]2O[C@@H](n3c[n+](C)c4c(=O)[nH]c(N)nc43)C(O)C2OC)C(OP(=O)(O)OC[C@H]2O[C@@H](n3cnc4c(=O)[nH]c(N)nc43)C(O)C2O)C1OC` (stereo partly drawn) [Compound 30, ^m7G3′OMeppp^m6A2′OMepG], the “in vivo luciferase expression as compared to m7GpppA2′OMepG (Control)” value was “increased in vivo luciferase expression” and the “in vivo luciferase expression (translation) as compared to the same compound lacking the 3′OMe group on the m7G” value is reported as “increased luciferase expression in vivo”.

On to `COC1C(OP(=O)(O)OC[C@H]2O[C@@H](n3cnc4c(=O)[nH]c(N)nc43)C(O)C2O)[C@@H](COP(=O)(O)OP(=O)([O-])OP(=O)(O)OC[C@]23COC(C2O)[C@H](n2c[n+](C)c4c(=O)[nH]c(N)nc42)O3)O[C@H]1n1cnc2c(N)ncnc21` (stereo partly drawn) [Compound 32, ^m7G2′4′LNApppA2′OMepG], for which the “in vivo luciferase expression as compared to m7GpppA2′OMepG (Control)” value is “increased in vivo luciferase expression”.
